Measurements from patent publication US20200207830A1, “TREM2 MUTANTS RESISTANT TO SHEDDASE CLEAVAGE” (NOVARTIS AG, priority 2017, published 2020).

Key:
human M2A macrophages = test: Live cell imaging of TREM2 cell surface expression in human M2A macrophages; format: cell-based
Description: (§1) CHO cells were transfected to co-express hDAP12 and hTREM2 using Lipofectamine LTX reagent (Thermofischer) according to the manufacturer's recommendations. One positive clone was selected and designated CHO-hDAP12-hTREM2. Human M2A macrophages were obtained from buffy coat using a negative isolation kit for monocytes (Stem cell technologies) and differentiated for 5 days in RPMI1640 medium with Glutamax (Gibco) supplemented with 10% FBS (Gibco), PenStrep (Gibco), 1% Sodium Pyruvate (Gibco), 0.025 M HEPES Buffer (Gibco), 0.05 mM β-mercaptoethanol (Gibco), M-CSF (40 ng/ml) and IL-4 (50 ng/ml). Cell surface TREM2 was detected by FACS as described above.
(§2) Human M2A macrophages or CHO-hDAP12-hTREM2 were seeded on 384 well plates (Greiner) and treated with ADAM inhibitors DPC333 or GI254023 at concentrations indicated in the figures. 16 h later cells were treated for 30 minutes with PMA (50 ng/ml) or 0.1% DMSO for 30 minutes. Plates were put on ice and stained with goat anti human TREM2 antibody AF1828 (R&D Systems) or isotype control and Hoechst stain followed by incubation with the secondary Alexa Fluor 488 conjugated anti goat antibody (Molecular Probes). Images were acquired using an InCe112000 analyzer (GE Healthcare). For image quantification the free open source software CellProfiler was applied.
To determine the contribution of ADAM10 or ADAM17 to shedding of TREM2 ectodomain, selective inhibitors were identified: DPC333 (Qian et al., Drug Metabolism and Disposition: the Biological Fate of Chemicals 35, 1916-1925, 2007) and GI254023 (Hundhausen et al., Blood. 2003; 102:1186-1195). DPC333 and GI254023 were characterized for inhibitory selectivity towards ADAM10 and ADAM17. […] Using live cell imaging, cell surface expression of hTREM2 was assessed in CHO-hDAP12-hTREM2 cells after overnight treatment of the cells with the two ADAM inhibitors under conditional shedding conditions (FIG. 2A) or after treatment of the cells with PMA (FIG. 2B). […]

CHO-hDAP12-hTREM2 cells = test: Live cell imaging of TREM2 cell surface expression in CHO-hDAP12-hTREM2 cells; format: cell-based; details: overnight treatment
Description: as §1, §2
To determine the contribution of ADAM10 or ADAM17 to shedding of TREM2 ectodomain, selective inhibitors were identified: DPC333 (Qian et al., Drug Metabolism and Disposition: the Biological Fate of Chemicals 35, 1916-1925, 2007) and GI254023 (Hundhausen et al., Blood. 2003; 102:1186-1195). DPC333 and GI254023 were characterized for inhibitory selectivity towards ADAM10 and ADAM17. […] Using live cell imaging, cell surface expression of hTREM2 was assessed in CHO-hDAP12-hTREM2 cells after overnight treatment of the cells with the two ADAM inhibitors under conditional shedding conditions (FIG. 2A) or after treatment of the cells with PMA (FIG. 2B). […] This effect might be attributed to true ADAM10 inhibition or it might be caused by unspecific inhibition of ADAM17 by GI254023 when used at high concentrations. […] To get closer to a physiological cellular system, a similar experiment was conducted in human M2A macrophages differentiated from CD^14+ human monocytes (FIGS. 2C-2D).

ADAM10 [1] = target: T1, ADAM10 (Homo sapiens, UniProt O14672); test: In vitro inhibition of recombinant ADAM10; format: biochemical; details: Hepes buffer pH 7.5
T1 sequence (O14672 214-748): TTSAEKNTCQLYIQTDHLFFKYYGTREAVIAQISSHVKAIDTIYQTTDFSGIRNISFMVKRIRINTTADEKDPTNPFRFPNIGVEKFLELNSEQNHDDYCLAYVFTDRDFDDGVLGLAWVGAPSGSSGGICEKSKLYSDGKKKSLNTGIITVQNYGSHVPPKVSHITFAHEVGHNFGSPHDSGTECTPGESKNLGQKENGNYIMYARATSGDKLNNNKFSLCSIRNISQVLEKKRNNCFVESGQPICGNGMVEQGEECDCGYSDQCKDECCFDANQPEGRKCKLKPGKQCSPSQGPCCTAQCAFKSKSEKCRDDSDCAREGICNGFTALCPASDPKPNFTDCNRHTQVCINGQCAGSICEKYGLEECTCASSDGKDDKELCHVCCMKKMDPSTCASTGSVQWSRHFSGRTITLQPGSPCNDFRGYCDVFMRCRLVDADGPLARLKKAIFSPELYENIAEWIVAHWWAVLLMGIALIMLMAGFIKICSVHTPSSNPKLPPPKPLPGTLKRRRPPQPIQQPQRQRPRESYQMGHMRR
Procedure: FIG. 2E is a line graph showing inhibition of recombinant ADAM10 and ADAM17 by DPC333 and GI254023 in vitro in Hepes buffer at pH 7.5.
Enzyme selectivity of the ADAM inhibitors applied was determined in an in vitro cleavage assay and both inhibitors were used over a broad concentration range to investigate effects on TREM2 cell surface expression in CHO-hDAP12-hTREM2 cells and human M2A macrophages.

ADAM17 [2] = target: T2, ADAM17 (Homo sapiens, UniProt P78536); test: In vitro inhibition of recombinant ADAM17; format: biochemical; details: Hepes buffer pH 7.5
THP1 cells = test: Cell surface TREM2 and sTREM2 in THP1 CRISPR cell clones; format: cell-based, human
Procedure: THP1 cells stably coexpressing Cas9 and a blasticidin resistance gene delivered by lentivirus were cultured in RPMI medium containing 10% FBS, 1% L-glutamine, 1% pen/strep, and 10 μg/ml of blasticidin (Thermo Fisher Scientific). The cells were cultured at 37° C. in 5% CO2 atmosphere.
THP1-Cas9 cells were infected with lentiviruses expressing the puromycin resistance gene and sgRNAs (for vector design, see Hoffman, Proceedings of the National Academy of Sciences of the United States of America 111, 3128-3133, 2014) targeting either ADAM10 ([…], SEQ ID NO: 75) or ADAM17 ([…], SEQ ID NO: 76). Lentiviral packaging was carried out in HEK293T cells as described previously. Briefly, 30 μL of lentiviral sgRNA supernatant was added to 1×10^6 THP1-Cas9 cells in 2 ml medium containing 5 μg/ml polybrene (Sigma) and spun at 300 g for 90 minutes in a 6-well plate. After 24 hours the cells were spun down and resuspended in fresh culture medium containing 1.5 μg/mL puromycin. After 4 weeks of weekly media changes, genomic DNA was isolated using a Quick-gDNA miniprep kit (Zymo Research) to assess the insertions and deletions (indels) present in the pool by next-generation sequencing (NGS). To isolate clones containing only frameshift indels, cells were plated at limiting dilution into 96-well plates. Upon expansion of the clones, they were assayed by NGS and clones containing only frameshift alleles were selected for downstream assays.
To confirm the results in Example 2, a genetic approach was used to further investigate the contribution of ADAM10/17 to TREM2 shedding. Human monocytic THP1 cells were chosen as model system which endogenously expresses TREM2. Employing the CRISPR/CAS9 technology, clones were generated that lack expression of ADAM10 (AD10 H4) or ADAM17 (AD17 G12) as well as a control cell line (Ctrl gRNA). Absence of gene products was verified by FACS analysis or Western blot (FIGS. 3C-3D).
Cell surface expressed TREM2 and sTREM2 were assessed in the three cell lines in the same experiment using three different conditions: no treatment reflecting constitutive shedding, PMA treatment that maximally activates shedding, and finally PMA and DPC333 treatment. […] Maximally activating sheddases with PMA leads to a strong reduction of cell surface TREM2 both in the control cell line and in the ADAM10 deficient clone. This is reflected in a strong increase in sTREM2. In the ADAM17 deficient cell line, PMA treatment also leads to a reduction of cell surface TREM2, but to a smaller extent than in the control CRISPR clone. Also, the increase in sTREM2 is smaller compared to PMA treated control CRISPR clone and ADAM10 deficient clone. However, the cleavage of TREM2 in the AD17 G12 clone in the presence of PMA must be caused by a sheddase other than ADAM17. […]

ADAM17 [3] = target: T2, ADAM17; test: In vitro cleavage of TREM2 stalk region peptides by ADAM17 (HPLC); format: biochemical; details: neutral buffer, up to 48 hours, HPLC of parent peptide
Description: FIGS. 5A-5E show ADAM17 cleaves TREM2 stalk region peptides in vitro at H157-S158. […] All peptides were obtained with an N-terminal 7-methoxycoumarin (Mca) fluorescent tag […]. Underlined amino acids indicates main sheddase cleavage site. AA112-171: SEQ ID NO: 24; Peptide 1: SEQ ID NO: 25; Peptide 2: SEQ ID NO: 26; Peptide 3: SEQ ID NO: 27; Peptide la: SEQ ID NO: 28; Peptide 2a: SEQ ID NO: 29; Peptide 4: SEQ ID NO: 30; Peptide 5: SEQ ID NO: 31; Peptide 6: SEQ ID NO: 32. […] FIG. 5C discloses SEQ ID NOS 83, 51 and 84, respectively, in order of appearance.
(§3) In order to identify the cleavage site of ADAM10/ADAM17 within the stalk region of TREM2, in vitro cleavage patterns of stalk region-derived peptides were investigated and confirmed the cleavage site by determination of the C-terminus of shed soluble TREM2 from cell culture supernatants. A series of peptides covering the stalk region were designed for in vitro investigation of ADAM10/ADAM17 cleavage (FIG. 5A). All peptides were obtained with an N-terminal 7-methoxycoumarin (Mca) fluorescent tag. Peptides 1-3, 1a and 2a were incubated with ADAM17 in neutral buffer for up to 48 hours, and reaction was followed by HPLC analysis of aliquots withdrawn at different time points.
(§4) HPLC-MS analysis of the reaction mixture of peptide3/ADAM17 identified one major product, SISRSLLEGEIPFP-NH2(SEQ ID NO: 51), together with 2 minor cleavage products (FIGS. 5B-5C). […] At these time points there was essentially no substrate left. Therefore, it can be concluded that the minor cleavage products originate from secondary ADAM17 cleavage of the main product.

ADAM10 [4] = target: T1, ADAM10; test: In vitro cleavage of TREM2 stalk region peptides by ADAM10; format: biochemical; details: data not shown
Description: as §3, §4
Recent literature gave insight into ADAM10 and ADAM17 preferences for the cleavage of peptides and proteins (Caescu et al., Biochem J 424, 79-88, 2009; Tucher et al., J Proteome Res 13, 2205-2214, 2014). […] After searching for the least preferred amino acids in substrates of ADAM10 and 17, isoleucine was identified as never occurring in P1 of ADAM substrates, and a very low preference for aspartate or proline in P1′ and in P2′. […] In these peptides the H-SI cleavage site was replaced with IPP, IPD, and IDP, respectively.

[5] = conditional shedding (steady state) conditions, FIG. 2A
[6] = then PMA-treated cells, FIG. 2B

T2 sequence (P78536 215-824): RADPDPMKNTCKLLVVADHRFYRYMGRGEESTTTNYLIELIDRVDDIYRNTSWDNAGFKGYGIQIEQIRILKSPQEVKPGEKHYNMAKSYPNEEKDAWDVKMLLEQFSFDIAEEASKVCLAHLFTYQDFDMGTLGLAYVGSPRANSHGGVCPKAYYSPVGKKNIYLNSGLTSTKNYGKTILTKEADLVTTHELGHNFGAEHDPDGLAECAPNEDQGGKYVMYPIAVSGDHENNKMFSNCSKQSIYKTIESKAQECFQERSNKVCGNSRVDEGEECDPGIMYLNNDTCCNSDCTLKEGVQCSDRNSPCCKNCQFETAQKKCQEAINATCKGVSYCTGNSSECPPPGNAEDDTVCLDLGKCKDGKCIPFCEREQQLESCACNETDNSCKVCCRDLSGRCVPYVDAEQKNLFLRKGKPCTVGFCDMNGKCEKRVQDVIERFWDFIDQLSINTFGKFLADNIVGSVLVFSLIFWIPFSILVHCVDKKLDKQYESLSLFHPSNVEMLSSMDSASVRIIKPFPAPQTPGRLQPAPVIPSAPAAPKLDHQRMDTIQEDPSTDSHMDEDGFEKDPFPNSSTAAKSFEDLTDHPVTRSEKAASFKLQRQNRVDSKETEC

| Compound | TREM2 cell surface expression (human M2A macrophages; steady-state shedding, FIG. 2C) | TREM2 cell surface levels (CHO-hDAP12-hTREM2 cells; [5]) | TREM2 cell surface levels (CHO-hDAP12-hTREM2 cells; [6]) | IC50 (ADAM10 [1]) [nM] | IC50 (ADAM17 [2]) [nM] | TREM2 cell surface levels (THP1 cells; co-treatment with PMA and DPC333, AD10 H4 cells (ADAM10 knockout)) | TREM2 cell surface levels (THP1 cells; co-treatment with PMA and DPC333, AD17 G12 clone (ADAM17 knockout)) | TREM2 cell surface levels (THP1 cells; co-treatment with PMA and DPC333, Ctrl gRNA cells) | sTREM2 (THP1 cells; co-treatment with PMA and DPC333 compared to PMA treatment only, AD17 G12 clone) | TREM2 cell surface expression (human M2A macrophages; additional PMA treatment, FIG. 2D) | Cleavage by ADAM17 (ADAM17 [3]) | Cleavage by ADAM10 (ADAM10 [4]) |
| --- | --- | --- | --- | --- | --- | --- | --- | --- | --- | --- | --- | --- |
| CNC(=O)[C@@H](NC(=O)[C@H](CCCc1ccccc1)[C@H](C)N(O)C=O)C(C)(C)C [GI254023, (2R,3 S)-3-(formyl-hydroxyamino)-2-(3-phenyl-1-propyl) butanoic acid [(1S)-2,2-dimethyl-1-methylcarbamoyl-1-propyl] amide] | small effect | limited effect | complete lack of effect | 1.5 | 196 | – | – | – | – | – | – | – |
| Cc1cc(COc2ccc([C@]3(N)CCN([C@H](CC(C)C)C(=O)NO)C3=O)cc2)c2ccccc2n1 [DPC333] | increases TREM2 cell surface expression dose-dependently | dose-dependently increases | dose-dependently increases | 5.3 | < 0.6 | restored | smaller effects | restored | strongly reduced | increases TREM2 cell surface expression dose-dependently | – | – |
| Peptide 6: TREM2 stalk peptide, H-SI cleavage site replaced with IDP; SEQ ID NO: 32 (DAHVEIDPSRSLLEGEIPFP) | – | – | – | – | – | – | – | – | – | – | resistant to in vitro cleavage | slowly cleaved |
| Peptide 5: TREM2 stalk peptide, H-SI cleavage site replaced with IPD; SEQ ID NO: 31 (DAHVEIPDSRSLLEGEIPFP) | – | – | – | – | – | – | – | – | – | – | resistant to in vitro cleavage | slowly cleaved |
| Peptide 4: TREM2 stalk peptide, H-SI cleavage site replaced with IPP; SEQ ID NO: 30 (DAHVEIPPSRSLLEGEIPFP) | – | – | – | – | – | – | – | – | – | – | resistant to in vitro cleavage | cleavage resistant |
